Data on 14 molecules can be found in PubChem BioAssay AID192 (DTP/NCI, 2004).

SMILES strings stand for the structures. Several values for one entry are separate records, joined by “and”; a condition that tells them apart may be missing. Identical values can stand only once. Inconclusive results and toxic doses are left out. Peptide text beside a SMILES is read from it. * marks the point of attachment. Trt = c1ccc(C(c2ccccc2)(c2ccccc2)*)cc1; Cbz = O=C(OCc1ccccc1)*

For the assay, the system named is BDF1 mice, B16 melanoma ip, median survival T/C. As to the kind of experiment: NCI In Vivo Anticancer Drug Screen. Data for tumor model B16 Melanoma (intraperitoneal) in B6D2F1 (BDF1) mice. The conditions noted are these: endpoint: median survival time, higher = longer survival. In outline:
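Compounds were tested in mice carrying transplantable tumors. Survival or tumor size was recorded, and each value is the treated-group measurement (T) divided by that of the vehicle-treated control group (C).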

[1] abbreviates: dose: 25.0 mg/kg/injection, schedule: Q01DX009 (ip), vehicle: saline with Tween-80.
Where [2] appears, read: dose: 50.0 mg/kg/injection, schedule: Q01DX009 (ip), vehicle: saline with Tween-80.
Setting [3] is: dose: 25.0 mg/kg/injection, schedule: Q01DX009 (ip), vehicle: saline.
Where [4] appears, read: dose: 50.0 mg/kg/injection, schedule: Q01DX009 (ip), vehicle: saline.

For the molecule `CC1CN1CC(O)C(O)CN1CC1C` (stereo not drawn), the T/C is 100 % of control (dose: 0.25 mg/kg/injection, schedule: Q01DX009 (ip), vehicle: saline); 110 % of control (dose: 0.4 mg/kg/injection, schedule: Q01DX009 (ip), vehicle: saline); 107 % of control and 102 % of control (dose: 0.5 mg/kg/injection, schedule: Q01DX009 (ip), vehicle: saline); 118 % of control (dose: 0.6 mg/kg/injection, schedule: Q01DX009 (ip), vehicle: saline); 150 % of control (dose: 0.63 mg/kg/injection, schedule: Q01DX009 (ip), vehicle: saline); 110 % of control (dose: 0.8 mg/kg/injection, schedule: Q01DX009 (ip), vehicle: saline). Also, the T/C reads like this: (dose: 0.9 mg/kg/injection, schedule: Q01DX009 (ip), vehicle: saline) 153 % of control; (dose: 1.25 mg/kg/injection, schedule: Q01DX009 (ip), vehicle: saline) 93 % of control; (dose: 2.0 mg/kg/injection, schedule: Q01DX009 (ip), vehicle: saline) 156 % of control and 151 % of control; (dose: 2.5 mg/kg/injection, schedule: Q01DX009 (ip), vehicle: saline) 106 % of control.

For the molecule `CC1(C)N=C(N)N=C(N)N1c1ccc2ccccc2c1`, the T/C reads like this: (dose: 12.5 mg/kg/injection, schedule: Q01DX009 (ip), vehicle: saline with Tween-80) 90 % of control; (dose: 22.0 mg/kg/injection, schedule: Q01DX009 (ip), vehicle: Klucel (hydroxypropylcellulose) (HPC)) 87 % of control; under setting [1], 94 % of control; (dose: 33.0 mg/kg/injection, schedule: Q01DX009 (ip), vehicle: Klucel (hydroxypropylcellulose) (HPC)) 91 % of control; (dose: 50.0 mg/kg/injection, schedule: Q01DX009 (ip), vehicle: Klucel (hydroxypropylcellulose) (HPC)) 119 % of control; under setting [2], 98 % of control.

Regarding `CNC(=O)Nc1nccs1`, the T/C is, setting by setting: under setting [1], 97 % of control; under setting [2], 95 % of control; (dose: 100.0 mg/kg/injection, schedule: Q01DX009 (ip), vehicle: saline with Tween-80) 106 % of control; (dose: 200.0 mg/kg/injection, schedule: Q01DX009 (ip), vehicle: saline with Tween-80) 91 % of control.

For `Cc1nc(SCc2ccc(Cl)cc2)[nH]c(=O)c1CCO`, the T/C is, setting by setting: (dose: 100.0 mg/kg/injection, schedule: Q04DX003 (ip), vehicle: saline with Tween-80) 100 % of control; (dose: 200.0 mg/kg/injection, schedule: Q04DX003 (ip), vehicle: saline with Tween-80) 102 % of control; (dose: 400.0 mg/kg/injection, schedule: Q04DX003 (ip), vehicle: saline with Tween-80) 92 % of control.

As for `COC(=O)C(CSC(c1ccccc1)(c1ccccc1)c1ccccc1)NC(=O)C(CC(N)=O)NC(=O)OCc1ccccc1` (stereo not drawn) (Cbz-Asn-Cys(Trt)-OMe; configuration not given here), the T/C reads like this: (dose: 12.5 mg/kg/injection, schedule: Q01DX009 (ip), vehicle: distilled water + Tween-80) 108 % of control and 110 % of control; (dose: 25.0 mg/kg/injection, schedule: Q01DX009 (ip), vehicle: distilled water + Tween-80) 102 % of control and 117 % of control; (dose: 50.0 mg/kg/injection, schedule: Q01DX009 (ip), vehicle: distilled water + Tween-80) 109 % of control; (dose: 100.0 mg/kg/injection, schedule: Q01DX009 (ip), vehicle: distilled water + Tween-80) 113 % of control; (dose: 200.0 mg/kg/injection, schedule: Q01DX009 (ip), vehicle: distilled water + Tween-80) 116 % of control.

In the case of `CCOCCN1CCN(CCCN2c3ccccc3Sc3ccc(C(F)(F)F)cc32)CC1`, the T/C (dose: 0.09 mg/kg/injection, schedule: Q01DX009 (ip), vehicle: water) is 105 % of control; the T/C (dose: 0.19 mg/kg/injection, schedule: Q01DX009 (ip), vehicle: water) was 113 % of control; the T/C (dose: 0.39 mg/kg/injection, schedule: Q01DX009 (ip), vehicle: water) was 100 % of control.

Regarding `Cc1ccc(NC(=O)C(Cl)(Cl)Cl)cc1C`, the T/C (dose: 100.0 mg/kg/injection, schedule: Q01DX009 (ip), vehicle: Klucel (hydroxypropylcellulose) (HPC)) is 96 % of control; the T/C (dose: 200.0 mg/kg/injection, schedule: Q01DX009 (ip), vehicle: Klucel (hydroxypropylcellulose) (HPC)) is 96 % of control; the T/C (dose: 400.0 mg/kg/injection, schedule: Q01DX009 (ip), vehicle: Klucel (hydroxypropylcellulose) (HPC)) was 96 % of control.

Turning to `Cc1ccc(C#N)s1`, the T/C (dose: 3.12 mg/kg/injection, schedule: Q01DX009 (ip), vehicle: other) was 104 % of control; the T/C (dose: 6.25 mg/kg/injection, schedule: Q01DX009 (ip), vehicle: other) is 109 % of control; the T/C (dose: 12.5 mg/kg/injection, schedule: Q01DX009 (ip), vehicle: other) is 101 % of control; the T/C (dose: 25.0 mg/kg/injection, schedule: Q01DX009 (ip), vehicle: other) was 108 % of control.

As to `OCC1OC(O)C(O)C(O)C1O` (stereo not drawn), the T/C is 98 % of control (dose: 500.0 mg/kg/injection, schedule: Q01DX009 (ip), vehicle: saline); 93 % of control (dose: 1000.0 mg/kg/injection, schedule: Q01DX009 (ip), vehicle: saline); 103 % of control (dose: 2000.0 mg/kg/injection, schedule: Q01DX009 (ip), vehicle: saline); 97 % of control (dose: 4000.0 mg/kg/injection, schedule: Q01DX009 (ip), vehicle: saline).

Turning to `C[CH2][Pb]([CH2]C)([CH2]C)[O]C(=O)COc1ccccc1`, the T/C (dose: 1.5 mg/kg/injection, schedule: Q01DX009 (ip), vehicle: saline with Tween-80) was 104 % of control; the T/C (dose: 3.0 mg/kg/injection, schedule: Q01DX009 (ip), vehicle: saline with Tween-80) is 107 % of control; the T/C (dose: 6.25 mg/kg/injection, schedule: Q01DX009 (ip), vehicle: saline with Tween-80) is 108 % of control.

On to `CC(C)OCCCN=C(N)N`, for which the T/C (dose: 12.5 mg/kg/injection, schedule: Q01DX009 (ip), vehicle: saline) was 105 % of control; the T/C under setting [3] is 106 % of control; the T/C under setting [4] is 110 % of control.

For the molecule `COc1ccc2c(c1OC(C)=O)-c1cc(OC(C)=O)cc3c1C(C2)N(C(=O)CN(CCCl)CCCl)CC3` (stereo not drawn), the T/C is, setting by setting: (dose: 1.56 mg/kg/injection, schedule: Q04DX003 (ip), vehicle: DMSO) 92 % of control; (dose: 3.13 mg/kg/injection, schedule: Q04DX003 (ip), vehicle: DMSO) 108 % of control; (dose: 6.25 mg/kg/injection, schedule: Q04DX003 (ip), vehicle: DMSO) 115 % of control; (dose: 25.0 mg/kg/injection, schedule: Q04DX003 (ip), vehicle: DMSO) 165 % of control.

In the case of `O=C(NN=C1CCCCC1)c1ccccc1`, the T/C by setting is: (dose: 18.75 mg/kg/injection, schedule: Q01DX009 (ip), vehicle: saline with Tween-80) 97 % of control; (dose: 37.5 mg/kg/injection, schedule: Q01DX009 (ip), vehicle: saline with Tween-80) 100 % of control; (dose: 75.0 mg/kg/injection, schedule: Q01DX009 (ip), vehicle: saline with Tween-80) 105 % of control and 107 % of control.

In the case of `O=C(O)CC[S-].[Ag+]`, the T/C by setting is: under setting [3], 99 % of control; under setting [4], 111 % of control; (dose: 100.0 mg/kg/injection, schedule: Q01DX009 (ip), vehicle: saline) 97 % of control.
